Experimental data published in patent US20060073572A1, “Cytokine structurally related to IL-17” (The Johns Hopkins University, priority 2001, published 2006).
“Also recorded” adds a separate entry of the source.

Experiments:
Format in all cases: cell-based, human
IL-6 [1] = test: IL-6 expression in HUVECs (ELISA, RT-PCR)
Method: (§1) FIG. 5. Analysis of IL-6 (FIG. 5A) and IL-8 (FIG. 5B) expression in primary bronchial epithelial cells (PBECs) and human umbilical vein endothelial cells (HUVECs) stimulated by ML-1. The IL-6 and IL-8 protein release in the supernatant was determined by ELISA as described in Example 8. The results were expressed as mean+SD (n=6). *p<0.05 was considered significant vs control.
(§2) FIG. 7A-7D. Effect of PD98059 on IL-6 (FIG. 7A) and IL-8 (FIG. 7B) protein production in PBECs and HUVECs. The cells were preincubated with varying concentrations of PD98059, SB202190, or DMSO vehicle control for 1 hour, followed by stimulation with ML-1 (100 ng/ml) for 24 hours. The results are expressed as the mean+SD (n=6). *P<0.05 when compared to cultures without the addition of PD98059. FIGS. 7C and 7D. Semi-quantitative analysis of gene expression for IL-6 (FIG. 7C) and IL-8 (FIG. 7D) by RT-PCR. The cells were preincubated as described above and treated with ML-1 for 4 hours. RT-PCR was performed as described in Example 8. The results shown are representative of three separate experiments.
(§3) Human umbilical vein endothelial cells (HUVECs) were obtained from Clonetics and cultured in endothelial cell growth media (EGM; Clonetics) containing 12 μg/ml bovine brain extract, 10 ng/ml EGF, 1 μg/ml hydrocortisone, 50 μg/ml gentimicin, 50 ng/ml amphotericin B, and 5% FBS amphotericin-B (Clonetics).
(§4) PBECs and HUVECs were treated with ML-1 100 ng/ml of ML-1 for various time points. Total RNA was extracted using RNeasy (Qiagen) from 1×10^6 cells 4 hours after stimulation or exchange of media. […]
(§5) The amplification reaction was performed for 23 cycles with denaturation at 94° C. for 45 seconds, annealing at 56° C. for 45 seconds, and extension at 72° C. for 45 seconds. PCR products were detected by ethidium bromide staining and normalized by the intensity of an amplified housekeeping gene, G3PDH (see above). […] IL-6 and IL-8 protein levels in the collected supernatants were determined with a commercially available ELISA kit (Biosource, Camarillo, Calif.) according to the manufacturer's instructions.

ERK1/2 [2] = test: Western blotting of ERK1/2 phosphorylation in PBECs; conditions: pre-incubation with 10 μM for 1 hour, then ML-1 for 20 minutes
Method: (§6) FIGS. 6A-6D. Kinetic activation of ERK1/2 by ML-1 in PBECs (FIG. 6A) and HUVECs (FIG. 6B). The cells were incubated with or without ML-1 (100 ng/ml) for different time points as indicated. Western blotting analysis was performed by using antibodies against different MAP kinases as described in Example 8. FIGS. 6C and 6D. Effect of PD98059 on ML-1-induced phosphorylation of ERK1/2 in PBECs (FIG. 6C) and HUVECs (FIG. 6D). The cells were preincubated with PD98059 ([…]) or DMSO vehicle control for 1 hour, followed by stimulation of PBECs and HUVECs with medium or ML-1 for 20 minutes or 10 minutes, respectively. The results shown are representative of three separate experiments.
(§7) For analysis of activation of MAP kinases, PBECs were treated with IL-17 (100 ng/ml) for various time periods, with or without the MEK 1/2 inhibitor PD98059 ([…]; Calbiochem, La Jolla, Calif.) (15), the p38 inhibitor SB202190 (0.5-10 μM; ref. 16), or a vehicle control, DMSO (Me2SO) for 1 hour. […] Following the treatment, the cells were washed with ice-cold PBS. Cell pellets were immediately lysed in cold lysis buffer [20 mM Tris (pH 7.4), 4 mM EDTA, 2 mM EGTA, 1 mM PMSF, […] aprotinin, 200 mg/ml leupeptin, 50 mM NaF, 5 mM NaRP2O7, 1 mM Na3VO4, and 1% Nonidet P40; all purchased from Sigma]. Extracts (1×10^6 cell equivalents/lane) were suspended with an equal volume of 2× loading buffer [0.1 M Tris-HCl (pH 6.8)], 4% SDS, 0.005% bromophenol blue, and 20% glycerol) containing 2-ME (0.7 M) and subjected to 4-20% Tris-glycine gel electrophoresis (NOVEX, San Diego, Calif.). Gels were then transferred to PVDF membranes (BIO-RAD, Hercules, Calif.) with a Trans Blot apparatus (NOVEX). The membranes were immersed overnight in This-buffered saline/Tween 20 containing 5% nonfat dry skim milk (Carnation, Los Angeles, Calif.).
(§8) Immunoreactive proteins were detected using antibodies against various kinases and phosphorylated kinases. […] Western blotting detection reagents (Amersham) and Hyper ECL luminescence detection film (Amersham) were used. […]

IL-8 [3] = test: IL-8 expression in PBECs (ELISA, RT-PCR)
Method: as §1, §2
(§9) Primary bronchial epithelial cells (PBECs) were purchased from Clonetics (San Diego, Calif.) and cultured in bronchial epithelial basal medium (Clonetics) containing 0.5 ng/ml human recombinant epidermal growth factor (EGF), 52 mg/ml bovine pituitary extract, 0.1 mg/ml retinoic acid, 0.5 mg/ml hydrocortisone, 5 mg/ml insulin, 10 mg/ml transferrin, 0.5 mg/ml epinephrine, 6.5 ng/ml triiodothyronine, […] gentamicin, and 50 pg/ml amphotericin-B (Clonetics). […]
as §5

IL-6 [4] = test: IL-6 expression in PBECs (ELISA, RT-PCR)
Method: as §1, §2, §9, §5

IL-8 [5] = test: IL-8 expression in HUVECs (ELISA, RT-PCR)
Method: as §1, §2, §3, §4, §5

ERK1/2 [6] = test: Western blotting of ERK1/2 phosphorylation in HUVECs; conditions: pre-incubation with 10 μM for 1 hour, then ML-1 for 10 minutes
Method: as §6, §7, §8

IL-8 [7] = test: IL-8 expression in NHBE cells (RT-PCR and ELISA); conditions: 100 ng/ml
Excerpt: FIGS. 3A-3C. FIG. 3A, Expression of ML-1 protein in COS-7 cells. COS-7 cells were transfected with a gene construct containing full-length ML-1 sequence and a tag sequence encoding poly (His) peptide. ML-1-His fusion proteins were purified from supernatants of the transfected cells using a His affinity column, run on an 8-16% SDS-polyacrylamide gel under reducing conditions, and analyzed by Western Blot using anti-His monoclonal antibody. Lane 1 represents a mock-transfected sample. Lane 2 represents an ML-1-transfected sample. The location of a 19.5 kd marker is indicated. FIG. 3B, Effect of ML-1 on IL-8 gene expression. Human primary bronchial epithelial cells (NHBE cells) were treated with different stimuli. The cells were harvested 4 hours after stimulation, and total RNA was extracted and subjected to RT-PCR using IL-8 and G3PDH primers. Lane 1, medium only; lane 2, cells treated with rIL-17 (100 ng/ml); lane 3, cells treated with purified His-tagged protein (Positope, 100 ng/ml); lane 4, cells treated with ML-1 (100 ng/ml). FIG. 3C, Effect of ML-1 on IL-8 protein production. NHBE cells were treated with the same stimuli used in FIG. 3B, and the supernatants were harvested 48 hours after stimulation.
Primary human bronchial epithelial (NHBE) cells were purchased from Clonetics (San Diego, Calif.) and cultured according to the manufacturer's instructions. The cells were treated with IL-17 (100 ng/ml), ML-1 (100 ng/ml), or a control His-tagged protein (Positope, 100 ng/ml; Invitrogen, Carlsbad, Calif.). The affinity-purified control His protein was dissolved in the same buffer as ML-1. Total RNA was extracted using Rneasy (Qiagen, Chatsworth, Calif.) from 1×10^6 cells 4 hours after stimulation or exchange of media. The protocol for cDNA synthesis was that described above. For PCR, the sequences of PCR primers were based on the human IL-8 cDNA sequence. The sequences of PCR primers for IL-8 were: forward, 5′-TCTGCAGCTCTGTGTGAAG-3′ (SEQ ID NO:14) and reverse, 5′-TAATTTCTGTGTTGGCGCA-3′ (SEQ ID NO:15). The amplification reaction was performed for 23 cycles with denaturation at 94° C. for 45 seconds, annealing at 56° C. for 45 seconds, and extension at 72° C. for 45 seconds PCR products were detected by ethidium bromide staining. The expected size for IL-8 was 154 basepairs. IL-8 protein levels in the collected supernatants were determined with a commercially available ELISA kit (Biosource, Camarillo, Calif.) according to the manufacturer's instructions.

ICAM-1 = ICAM-1 surface protein expression on NHBE cells by flow cytometry; conditions: 100 ng/ml, 48 hours, mean±SD (n=4)
Method: FIG. 4. Effect of ML-1 on ICAM-1 surface expression on NHBE cells by Flow Cytometry. NHBE cells were treated for 48 hours under following conditions: medium only, rIL-17 (100 ng/ml), purified His-tagged protein (Positope, 100 ng/ml), or ML-1 (100 ng/ml) as indicated. The mean fluorescence intensity of ICAM-1 surface expression was measured. The experiment was conducted four times. The results shown are from a representative experiment. * p<0.01.
To determine whether ML-1 is able to induce ICAM-1 expression on NHBE cells, surface expression of ICAM-1 on NHBE cells was measured and the effects of ML-1 and IL-17 were compared.
NHBE cells were treated with IL-17 (100 ng/ml), ML-1 (100 ng/ml), or a control His protein (Positope, 100 ng/ml). The cells were harvested following treatment with 0.1% trypsin-0.02% EDTA at 37° C. for 6 minutes and suspended in PBS containing 2% BSA and 0.02 % sodium azide. One million cells were incubated with a mouse anti-human ICAM-1 monoclonal antibody (R&D Systems, Minneapolis, Minn.) on ice for 30 minutes. […] After three additional washes in PBS, the cells were resuspended in PBS and immediately analyzed with a FACScan flow cytometer (Becton Dickinson, Mountain View, Calif.). […] Indices are expressed as mean±SD (n=4).

[8] = 1 hour preincubation, varying concentrations, ML-1 100 ng/ml 24 hours
[9] = preincubation, ML-1 for 4 hours, semi-quantitative RT-PCR

Row | Molecule | effect on ML-1-induced IL-6 protein production (IL-6 [1]; [8]) | effect on ML-1-induced IL-6 gene expression (IL-6 [1]; [9]) | effect on ML-1-induced activation of ERK1/2 (ERK1/2 [2]) | effect on ML-1-induced IL-8 protein production (IL-8 [3]; [8]) | effect on ML-1-induced IL-8 gene expression (IL-8 [3]; [9]) | effect on ML-1-induced IL-6 protein production (IL-6 [4]; [8]) | effect on ML-1-induced IL-6 gene expression (IL-6 [4]; [9]) | effect on ML-1-induced IL-8 protein production (IL-8 [5]; [8]) | effect on ML-1-induced IL-8 gene expression (IL-8 [5]; [9]) | effect on ML-1-induced activation of ERK1/2 (ERK1/2 [6]) | IL-8 protein expression (IL-8 [7]; ELISA of supernatants, 48 hours) | IL-8 transcript expression (IL-8 [7]; RT-PCR) | ICAM-1 surface expression, mean fluorescence intensity (MFI) (ICAM-1)
1 | COc1cccc(-c2cc(=O)c3ccccc3o2)c1N [PD98059] | inhibited; also recorded: not completely inhibited | Decreased levels | diminished | inhibited; also recorded: not completely inhibited | Decreased levels | inhibited; also recorded: not completely inhibited | Decreased levels | inhibited; also recorded: not completely inhibited | Decreased levels | diminished |  |  | 
2 | IL-17: human IL-17, T-cell derived homodimeric cytokine, used as comparator |  |  |  |  |  |  |  |  |  |  | enhanced | enhanced | 10.07±1.22
